Experimental data as given in patent publication US20260242416A1, “ANTIMICROBIAL PEPTIDES” (priority 2023, published 2026).
Read-outs that look alike come from different tables or passages of the source. Where a SMILES comes first, the peptide text is derived from it.

Columns and labels:
[1] = tested on: Salmonella enterica serovar Enteritidis (human clinical isolate); format: cell-based
Method: (§1) Bacteria were grown overnight at 37° C. in Mueller-Hinton Broth (MHB; Sigma-Aldrich, St. Louis. MO, USA) in a shaking incubator and aliquoted into cryovials with a 50% glycerol solution in a 1:1 ratio. No additives were added to the MHB during the growth of bacterial isolates. Glycerol stocks were stored at −80° C.
(§2) The antimicrobial activity of the putative AMPs was determined by a broth microdilution assay as described by the Clinical and Laboratory Standards Institute, with the published adaptations for testing of cationic peptides. Escherichia coli 25922 and Staphylococcus aureus 29213 isolates were purchased from the American Type Culture Collection (ATCC; Manassas, VA, USA). A human clinical isolate of Salmonella enterica serovar Enteritidis was provided by the BC Centre for Disease Control. Bacteria from stocks stored at −80° C. were streaked onto nonselective Columbia blood agar with 5% sheep blood (Oxoid) and incubated overnight at 37° C. Next, 2-4 colonies were streaked onto a new agar plate to ensure uniform health of colonies used in the broth microdilution assay. Isolated colonies were suspended in MHB and the optical density was measured with a spectrophotometer to create an initial inoculum concentration of approximately 1×10^8 cfu/mL. The inoculum was diluted 1:250 to a final concentration of 2-8×10^5 cfu/mL, which was confirmed by performing a Total Viability Count (TVC). The TVC consisted of plating a 1:1000 dilution of the final inoculum on nonselective media and was also used to confirm the health and purity of the inoculum in each trial.
(§3) Lyophilized 80 μg peptide aliquots synthesized by GenScript (Piscataway, NJ, USA) were resuspended to 1.28 mg/mL with UltraPure water (Thermo Fisher Scientific, Waltham, MA, USA) and serially diluted in polypropylene 96-well microtiter plates (Greiner Bio-One #650261, Kremsmunster, Austria) from 128 down to 0.5 μg/mL. Two columns per plate were reserved for growth and sterility controls. Inoculum was added to the wells containing the peptide and the growth control. Plates were incubated for 20-24 h at 37° C. The minimum inhibitory concentration (MIC) was determined as the lowest peptide concentration where there was no visible bacterial growth.

S. aureus ATCC 29213 = format: cell-based, Staphylococcus aureus
Method: as §1, §2, §3

E. coli ATCC 25922 = format: cell-based, Escherichia coli
Method: as §1, §2, §3

[2] = serovar Enteritidis (human clinical isolate)
[3] = Table 14, second value of the cell, three independent experiments, highest concentration tested 128
[4] = Table 14, third value of the cell, three independent experiments, highest concentration tested 128
[5] = Table 14, first value of the cell, three independent experiments, highest concentration tested 128

CC[C@H](C)[C@H](NC(=O)[C@H](Cc1ccccc1)NC(=O)[C@H](CCCCN)NC(=O)[C@@H](NC(=O)[C@H](CCCCN)NC(=O)[C@@H](N)CC(N)=O)[C@@H](C)CC)C(=O)N[C@@H](CC(N)=O)C(=O)N[C@@H](CCCCN)C(=O)N[C@@H](Cc1ccc(O)cc1)C(=O)N[C@H](C(=O)N[C@@H](CCCCN)C(=O)N[C@@H](CCCCN)C(=O)N[C@H](C(=O)N[C@@H](CCC(N)=O)C(=O)N[C@@H](CC(C)C)C(=O)N[C@@H](CCCCN)C(=O)N[C@@H](CCCCN)C(=O)N[C@H](C(=O)N[C@@H](CC(C)C)C(=O)N[C@H](C(=O)N[C@@H](CCCCN)C(=O)N[C@@H](CO)C(=O)O)C(C)C)[C@@H](C)CC)C(C)C)C(C)C [BoCo1] (H-NKIKFINKYVKKVQLKKILVKS-OH; N-terminus and C-terminus assumed)
>128/>128/>128 ug/mL: MIC (ug/mL) S. Enteritidis [1, 2] | MIC (ug/mL) S. aureus (S. aureus ATCC 29213; ATCC 29213) | MIC (ug/mL) E. coli (E. coli ATCC 25922; ATCC 25922)

CC[C@H](C)[C@H](NC(=O)[C@H](Cc1c[nH]cn1)NC(=O)[C@H](Cc1c[nH]cn1)NC(=O)[C@H](Cc1c[nH]cn1)NC(=O)[C@@H](N)CCCCN)C(=O)N[C@@H](CCCCN)C(=O)N[C@@H](CC(C)C)C(=O)N[C@@H](CCCNC(=N)N)C(=O)N[C@@H](Cc1c[nH]cn1)C(=O)NCC(=O)N[C@@H](CCCNC(=N)N)C(=O)N[C@@H](Cc1c[nH]cn1)C(=O)N[C@@H](CCCNC(=N)N)C(=O)N[C@@H](CCCNC(=N)N)C(=O)N[C@@H](CO)C(=O)N[C@H](C(=O)N[C@@H](CC(C)C)C(=O)N[C@@H](CCCNC(=N)N)C(=O)N[C@H](C(=O)N[C@@H](CC(C)C)C(=O)N[C@H](C(=O)O)C(C)C)[C@@H](C)O)C(C)C [CaCa3] (H-KHHHIKLRHGRHRRSVLRTLV-OH; N-terminus and C-terminus assumed)
>128/>128/>128 ug/mL: MIC (ug/mL) S. Enteritidis [1, 2] | MIC (ug/mL) S. aureus (S. aureus ATCC 29213; ATCC 29213) | MIC (ug/mL) E. coli (E. coli ATCC 25922; ATCC 25922)

CC[C@H](C)[C@H](NC(=O)CN)C(=O)N[C@@H](Cc1ccccc1)C(=O)N[C@@H](CO)C(=O)N[C@@H](CC(C)C)C(=O)N[C@H](C(=O)N[C@@H](CCCCN)C(=O)NCC(=O)N[C@@H](C)C(=O)N[C@@H](C)C(=O)N[C@@H](CCCCN)C(=O)O)[C@@H](C)CC [LeBo1, GIFSLIKGAAK] (H-GIFSLIKGAAK-OH; N-terminus and C-terminus assumed)
>128/>128/>128 ug/mL: MIC (ug/mL) S. Enteritidis [1, 3] | MIC (ug/mL) S. aureus (S. aureus ATCC 29213; [4]) | MIC (ug/mL) E. coli (E. coli ATCC 25922; [5])

CSCC[C@H](NC(=O)[C@@H](N)C(C)C)C(=O)N[C@@H](CC(C)C)C(=O)N1CCC[C@H]1C(=O)N[C@@H](CCCCN)C(=O)N[C@@H](Cc1ccccc1)C(=O)N[C@@H](CCCCN)C(=O)N[C@@H](CCCNC(=N)N)C(=O)O [MiDe1, VMLPKFKR] (H-VMLPKFKR-OH; N-terminus and C-terminus assumed)
>128/>128/>128 ug/mL: MIC (ug/mL) S. Enteritidis [1, 2] | MIC (ug/mL) S. aureus (S. aureus ATCC 29213; ATCC 29213) | MIC (ug/mL) E. coli (E. coli ATCC 25922; ATCC 25922)

CC[C@H](C)[C@H](NC(=O)[C@H](CC(=O)O)NC(=O)[C@H](CO)NC(=O)[C@H](CC(C)C)NC(=O)[C@@H]1CCCN1C(=O)[C@@H](N)[C@@H](C)O)C(=O)N[C@@H](Cc1ccccc1)C(=O)N[C@@H](CCCNC(=N)N)C(=O)NCC(=O)N[C@@H](CCC(N)=O)C(=O)N[C@@H](CC(C)C)C(=O)N[C@@H](CCCNC(=N)N)C(=O)N[C@@H](CO)C(=O)N[C@@H](CCCNC(=N)N)C(=O)N[C@H](C(=O)N[C@@H](CO)C(=O)N[C@@H](CCCNC(=N)N)C(=O)O)C(C)C [NaVi1, TPLSDIFRGQLRSRVSR] (H-TPLSDIFRGQLRSRVSR-OH; N-terminus and C-terminus assumed)
>128/>128/>128 ug/mL: MIC (ug/mL) S. Enteritidis [1, 2] | MIC (ug/mL) S. aureus (S. aureus ATCC 29213; ATCC 29213) | MIC (ug/mL) E. coli (E. coli ATCC 25922; ATCC 25922)

CC(C)C[C@H](NC(=O)CNC(=O)[C@H](CO)NC(=O)[C@H](CO)NC(=O)[C@H](CO)NC(=O)[C@H](CO)NC(=O)[C@H](CC(C)C)NC(=O)[C@@H]1CCCN1C(=O)[C@H](CO)NC(=O)[C@H](CC(C)C)NC(=O)[C@H](CO)NC(=O)[C@@H](N)CO)C(=O)NCC(=O)N[C@@H](CCCCN)C(=O)N[C@@H](CCCCN)C(=O)N[C@@H](CCCCN)C(=O)N[C@@H](CCCCN)C(=O)N[C@@H](CCCNC(=N)N)C(=O)N[C@@H](CCCCN)C(=O)N[C@@H](CO)C(=O)N[C@@H](CCCCN)C(=O)N[C@@H](CCCNC(=N)N)C(=O)N[C@@H](C)C(=O)N[C@@H](CO)C(=O)N[C@@H](CCCNC(=N)N)C(=O)O [NaVi2] (H-SSLSPLSSSSGLGKKKKRKSKRASR-OH; N-terminus and C-terminus assumed)
>128/>128/>128 ug/mL: MIC (ug/mL) S. Enteritidis [1, 2] | MIC (ug/mL) S. aureus (S. aureus ATCC 29213; ATCC 29213) | MIC (ug/mL) E. coli (E. coli ATCC 25922; ATCC 25922)

CC[C@H](C)[C@H](NC(=O)[C@H](CS)NC(=O)[C@H](CCCNC(=N)N)NC(=O)[C@H](CS)NC(=O)[C@H](CO)NC(=O)[C@H](CCCNC(=N)N)NC(=O)[C@H](CO)NC(=O)[C@H](CO)NC(=O)[C@H](CO)NC(=O)CN)C(=O)N[C@@H](CCCNC(=N)N)C(=O)N[C@@H](CC(C)C)C(=O)N[C@@H](CO)C(=O)N[C@@H](CCCNC(=N)N)C(=O)N[C@@H](CC(C)C)C(=O)N[C@@H](CO)C(=O)N[C@@H](CO)C(=O)N[C@@H](CCCCN)C(=O)N[C@@H](CCCNC(=N)N)C(=O)N[C@H](C(=O)O)[C@@H](C)O [NaVi4] (H-GSSSRSCRCIRLSRLSSKRT-OH; N-terminus and C-terminus assumed)
>128/>128/>128 ug/mL: MIC (ug/mL) S. Enteritidis [1, 2] | MIC (ug/mL) S. aureus (S. aureus ATCC 29213; ATCC 29213) | MIC (ug/mL) E. coli (E. coli ATCC 25922; ATCC 25922)

CC[C@H](C)[C@H](NC(=O)CNC(=O)[C@H](CO)NC(=O)[C@@H](NC(=O)[C@H](CC(C)C)NC(=O)CN)[C@@H](C)CC)C(=O)N[C@@H](CC(C)C)C(=O)NCC(=O)N[C@@H](C)C(=O)NCC(=O)N[C@@H](CCCCN)C(=O)N[C@@H](CCCCN)C(=O)O [OdMa8, GLISGILGAGKK] (H-GLISGILGAGKK-OH; N-terminus and C-terminus assumed)
>128/>128/>128 ug/mL: MIC (ug/mL) S. Enteritidis [1, 3] | MIC (ug/mL) S. aureus (S. aureus ATCC 29213; [4]) | MIC (ug/mL) E. coli (E. coli ATCC 25922; [5])

CC[C@H](C)[C@H](NC(=O)[C@H](Cc1c[nH]cn1)NC(=O)[C@H](Cc1c[nH]cn1)NC(=O)[C@H](Cc1ccc(O)cc1)NC(=O)[C@@H](N)CCCCN)C(=O)N[C@@H](CCCCN)C(=O)N[C@@H](CC(C)C)C(=O)N[C@@H](CCCNC(=N)N)C(=O)N[C@@H](Cc1c[nH]cn1)C(=O)NCC(=O)N[C@@H](CCCNC(=N)N)C(=O)N[C@@H](Cc1c[nH]cn1)C(=O)N[C@@H](CCCNC(=N)N)C(=O)N[C@@H](CCCNC(=N)N)C(=O)N[C@H](C(=O)N[C@H](C(=O)N[C@@H](Cc1c[nH]cn1)C(=O)O)[C@@H](C)CC)[C@@H](C)O [PaVa2, KYHHIKLRHGRHRRTIH] (H-KYHHIKLRHGRHRRTIH-OH; N-terminus and C-terminus assumed)
>128/>128/>128 ug/mL: MIC (ug/mL) S. Enteritidis [1, 2] | MIC (ug/mL) S. aureus (S. aureus ATCC 29213; ATCC 29213) | MIC (ug/mL) E. coli (E. coli ATCC 25922; ATCC 25922)

CC[C@H](C)[C@H](N)C(=O)N[C@H](C(=O)N[C@@H](CCC(=O)O)C(=O)N1CCC[C@H]1C(=O)N[C@H](C(=O)NCC(=O)N[C@H](C(=O)N[C@@H](CCCCN)C(=O)N[C@@H](C)C(=O)N1CCC[C@H]1C(=O)N[C@H](C(=O)N[C@@H](Cc1ccccc1)C(=O)N[C@H](C(=O)N[C@@H](CO)C(=O)N[C@@H](CCC(=O)O)C(=O)N[C@@H](CC(C)C)C(=O)N[C@@H](CCCNC(=N)N)C(=O)NCC(=O)NCC(=O)N[C@@H](Cc1c[nH]c2ccccc12)C(=O)N[C@@H](CC(C)C)C(=O)N[C@@H](CCCCN)C(=O)N[C@@H](CCCCN)C(=O)N[C@@H](CCCNC(=N)N)C(=O)O)[C@@H](C)O)[C@@H](C)O)[C@@H](C)O)C(C)C)[C@@H](C)O [PaVa3] (H-ITEPVGTKAPTFTSELRGGWLKKR-OH; N-terminus and C-terminus assumed)
>128/>128/>128 ug/mL: MIC (ug/mL) S. Enteritidis [1, 2] | MIC (ug/mL) S. aureus (S. aureus ATCC 29213; ATCC 29213) | MIC (ug/mL) E. coli (E. coli ATCC 25922; ATCC 25922)

CC(C)C[C@H](NC(=O)[C@H](C)NC(=O)[C@@H](N)Cc1c[nH]c2ccccc12)C(=O)N[C@@H](CCCNC(=N)N)C(=O)N[C@@H](Cc1c[nH]c2ccccc12)C(=O)N[C@@H](CCCCN)C(=O)N[C@H](C(=O)N[C@@H](CCCNC(=N)N)C(=O)O)[C@@H](C)O [PaVi1, WALRWKTR] (H-WALRWKTR-OH; N-terminus and C-terminus assumed)
>128/>128/>128 ug/mL: MIC (ug/mL) S. Enteritidis [1, 2] | MIC (ug/mL) S. aureus (S. aureus ATCC 29213; ATCC 29213) | MIC (ug/mL) E. coli (E. coli ATCC 25922; ATCC 25922)
